Source: patent US10172869B2, “Progesterone receptor modulators for use in the therapy of uterine fibroids” (PregLem SA, priority 2013, dated 2019)

What was measured:
Type in all cases: in vivo, human
uterine fibroids [1] = experiment: Example 1 Phase III study: pain (SF-MPQ, VAS) and quality of life (UFS-QoL); conditions: for pain assessed by the VAS, median change in score: median baseline 38
Experimental: (§1) Multicenter, Phase III Study to Investigate the Efficacy and Safety of 3-Months of Treatment with UPA Followed by 10 Days of Treatment with NETA or Placebo
(§2) All patients received a 3-month treatment course of UPA 10 mg once-daily followed by randomized oral NETA 10 mg once-daily or matching placebo for 10 days. UPA treatment was started during the first 4 days of menstruation. NETA or placebo was taken daily for the first 10 days following the cessation of UPA. The schedule incorporated the potential for women to enter an extension study involving repeated intermittent courses of UPA 10 mg.
(§3) In the clinical trial the effect of treatment of uterine fibroids have been assessed by means of parameters such as uterine bleeding using the pictorial blood-loss assessment chart (PBAC), condition of the uterus using transvaginal ultrasound (TVUS) and endometrial biopsy, endometrial histology using endometrial biopsy and pain using the Short-Form McGill Pain Questionnaire (SF-MPQ and quality of life using the Uterine Fibroid Symptom and Health-Related Quality of Life (UFS-QoL) questionnaire.
(§4) The efficacy end points were: percentage of amenorrheic patients at the end of UPA treatment; change from baseline in the volume of the three largest myomas to end of UPA treatment and 2 weeks after menstruation following end of NETA/placebo treatment; and change from baseline in pain and QoL to end of UPA treatment.

endometrium [2] = experiment: Example 2 long-term extension study: endometrium thickness and endometrium biopsy
From the text: (§5) Long-Term Extension of a Multicenter, Phase III Study to Investigate the Efficacy and Safety of 3-Months of Treatment with UPA Followed by 10 Days of Treatment with NETA or Placebo in Subjects with Myomas and Heavy Uterine Bleeding
(§6) The study consisted of three periods of 3 months open-label UPA treatment, each followed by 10 days of double-blind treatment with NETA or placebo and then a drug-free period. Subjects were randomly assigned to a NETA or matching placebo arm with a 1:1 ratio.
(§7) In the study of Example 1 and for each present study courses, UPA 10 mg was orally administered once daily for a period of 90 days, followed by 10 mg NETA or matching placebo once daily for a period of 10 days. The first treatment course in the present study consisted of 90 days UPA 10 mg treatment followed by 10 days of double-blind treatment (same as in Example 1 study) started between the first and fourth day of menstruation (inclusive) following visit after the end of treatment, or one month later if uterine sparing surgery had been performed and myomas were still present. The second and third treatment courses of the present study started on the first day of menstruation following visits after ends of each treatment courses, respectively.
(§8) Parameters assessed are the same as it was described in Example 1.

uterine fibroids [3] = experiment: Example 1 Phase III study: volume of the three largest fibroids (TVUS)
Experimental: as §1, §2, §3, §4

[4] = Example 1 Phase III study: serum hormones and biochemistry (E2, ACTH, TSH, prolactin, transaminases)
Experimental: as §1, §2
(§9) The safety endpoints included the number and proportion of patients experiencing treatment-emergent adverse events (TEAEs), including clinically significant changes in vital signs, physical examination, gynecological or breast examination, electrocardiogram (ECG), ovarian ultrasound, changes from baseline in endometrial thickness and clinically significant changes in endometrium biopsy. Other safety endpoints were change from baseline in hematology, coagulation, biochemistry, lipids, adrenocorticotropic hormone (ACTH), thyroid stimulating hormone (TSH) and prolactin, as well as serum levels of estradiol (E2).

[5] = system: myomas and heavy uterine bleeding; experiment: Example 2 long-term extension study: pain (SF-MPQ) and quality of life (UFS-QoL, EQ-5D)
From the text: as §5, §6, §7, §8

[6] = Example 1 Phase III study: adverse events (TEAEs, SAEs)
Experimental: as §1, §2, §9

[7] = Example 2 long-term extension study: safety assessments (TEAEs, SAEs); conditions: intermittent repeated administration schedule
From the text: as §5, §6, §7, §8

[8] = system: myomas and heavy uterine bleeding; experiment: Example 2 long-term extension study: surgery undertaken compared to planned; conditions: by the end of study; ITT population of 132, surgery initially planned for 66 (50%)
From the text: as §5, §6, §7

uterine fibroids [9] = experiment: Example 1 Phase III study: uterine bleeding, amenorrhea and return of menstruation (PBAC)
Experimental: as §1, §2, §3, §4
(§10) Exploratory endpoints included assessment of the strength of the first menstruation after UPA treatment (using PBAC), time to return of menstruation following treatment end, and frequency of post-treatment PAEC observed in the endometrial biopsy after return of menstruation.

myomas = experiment: Example 2 long-term extension study: volume of the 3 largest myomas and uterine volume
From the text: as §5, §6, §7, §8

endometrium [10] = experiment: Example 1 Phase III study: endometrial thickness
Experimental: as §1, §2, §9

endometrium [11] = experiment: Example 1 Phase III study: endometrial histology (biopsy); conditions: for percentage of non-physiological endometrial features: after treatment, 10.9% at screening
Experimental: as §1, §2, §3, §9, §10

[12] = system: myomas and heavy uterine bleeding; experiment: Example 2 long-term extension study: uterine bleeding, amenorrhea and return of menstruation (PBAC); conditions: for subjects with more than 9 days of any level of bleeding (heavy bleeding, bleeding or spotting) / percentage of subjects in amenorrhea: ITT Population; for mean time to amenorrhea / median time to amenorrhea: from first dose of UPA in the course
From the text: as §5, §6
In study described in Example 1, 251 subjects were screened at 21 sites and 209 subjects started treatment with UPA of which 202 attended the end of UPA treatment visit. Of those that completed study of Example 1 (190 subjects), 132 subjects from 19 sites opted to continue in to the extension study.
as §7, §8

[13] = from day 10 until end of treatment
[14] = from first day of menstruation on, or just prior to, first dose of UPA
[15] = follow-up visit, approximately 2 weeks after the third menstruation following 4th treatment course

CC(=O)O[C@]1(C(C)=O)CC[C@H]2[C@@H]3CCC4=CC(=O)CCC4=C3[C@@H](c3ccc(N(C)C)cc3)C[C@@]21C [UPA, 17α-acetoxy-11β[4-N,N-dimethylamino-phenyl)-19-norpregna-4,9-diene-3,20-dione]
pain, median change from baseline score (uterine fibroids [1]; Week 5): −5.0 | pain assessed by the VAS, median change in score (uterine fibroids [1]; Week 5): −21 | pain, median change from baseline score (uterine fibroids [1]; Week 9): −6.0 | pain assessed by the VAS, median change in score (uterine fibroids [1]; Week 9): −26 | QoL symptom severity, median change from baseline score (uterine fibroids [1]; after UPA treatment): −34.4 | health-related QoL (HRQL) total score, median increase compared to baseline (uterine fibroids [1]; after UPA treatment): 28.5 | pain, median change from baseline score (uterine fibroids [1]; end of UPA treatment): −6.0 | pain assessed by the VAS, median change in score (uterine fibroids [1]; end of UPA treatment): −25 | endometrium biopsy diagnosis by consensus review (endometrium [2]; all biopsy samples, 3 independent pathologists): diagnosis of benign endometrium | incidence of non-physiological changes in endometrium biopsy samples (endometrium [2]; epithelial changes, unusual vascular changes, extensive cyst formation): highest in samples taken following first treatment course and second treatment course | endometrium thickness (endometrium [2]; following a single treatment course of 3 months UPA): an increase in endometrium thickness was observed | frequency of PAEC (endometrium [2]; long-term repeated administration): independent of length of treatment | median change in the combined volume of the largest three fibroids (uterine fibroids [3]; after UPA treatment and return of menstruation): −45.8% | median change in the combined volume of the largest three fibroids (uterine fibroids [3]; between baseline and end of UPA treatment): −45.1% | women with a ≥25% reduction in the volume of the three largest fibroids (uterine fibroids [3]; in vivo): 74.7% | mean E2 level ([4]; Visit 5, during UPA treatment, screening mean 149.9 pg/mL): 81.6 pg/mL | median E2 level ([4]; Visit 5, during UPA treatment, screening median 120.0 pg/mL): 55.0 pg/mL | changes in ACTH, TSH, or prolactin ([4]; during UPA treatment): No significant changes | hepatic transaminases ([4]; small number of patients, all resolved during continued treatment and/or by follow-up visit): marginal increase | patient-reported pain, 3 SF-MPQ Parts ([5]; all visits): improvement from baseline at all visits | UFS-QoL average symptom severity score ([5]; compared to baseline): improvement (decrease) from baseline | UFS-QoL HRQL total score ([5]; on average, compared to baseline): improvement (increase) | ED-5D questionnaire, pain/discomfort and anxiety/depression dimensions ([5]; throughout the study): improvement was sustained throughout the study | SAE during the UPA treatment phase ([6]; UPA treatment phase): No SAE occurred | serious adverse events (SAEs) during the study ([6]; all post-treatment, considered not related to study medication): Three serious adverse events (SAEs) were reported for two patients | TEAE breast discomfort/tenderness, women ([6]; during UPA treatment): 3.8% | TEAE fatigue, women ([6]; during UPA treatment): 4.3% | TEAE headache, women ([6]; during UPA treatment): 16.3% | TEAE hot flushes, women ([6]; during UPA treatment): 4.8% | TEAE lower abdominal pain, women ([6]; during UPA treatment): 3.3% | TEAE nasopharyngitis, women ([6]; during UPA treatment): 6.7% | TEAE nausea, women ([6]; during UPA treatment): 3.8% | TEAE pelvic pain, women ([6]; during UPA treatment): 3.8% | TEAE vertigo, women ([6]; during UPA treatment): 3.8% | TEAEs classified as severe ([6]; during UPA treatment): 3.8% | women with TEAEs ([6]; during UPA treatment): 57.4% | women with TEAEs considered to be UPA related ([6]; during UPA treatment): 29.7% | safety and tolerability assessment [7]: well tolerated | subjects for whom surgery was not performed [8]: 94.7% | percentage of amenorrheic patients (uterine fibroids [9]; end of 3-month UPA 10 mg once-daily treatment): 78.5% | overall total median change in PBAC score (uterine fibroids [9]; first menstruation following treatment completion compared to baseline, median baseline score 216): −91.5 | patients on any particular day reporting any bleeding (uterine fibroids [9]; [13]): < 5% | patients on any particular day reporting heavy bleeding (uterine fibroids [9]; [13]): < 2% | mean time to amenorrhea (uterine fibroids [9]; [14]): 10.6 days | median time to amenorrhea (uterine fibroids [9]; [14]): 5.0 days | uterine volume measured by US (myomas; during the study, maintained after end of treatment): decreased during the study | total volume of the 3 largest myomas, mean percent change from screening (myomas; end of 4th treatment course): −53.53% | total volume of the 3 largest myomas, median percent change from screening (myomas; end of 4th treatment course): −72.08% | total volume of the 3 largest myomas, mean percent change from screening (myomas; [15]): −33.68% | total volume of the 3 largest myomas, median percent change from screening (myomas; [15]): −58.84% | percentage of women with endometrial thickness >16 mm (endometrium [10]; end of UPA treatment, 1.5% at screening): 9.1% | patients with endometrial thickness >16 mm (endometrium [10]; three months later): none of the patients assessed had a thickness >16 mm | percentage of non-physiological endometrial features (endometrium [11]): 25.6% | endometrial histology (endometrium [11]; biopsy 12 weeks after UPA treatment (n=38)): benign endometrial histology in all biopsies | endometrial histology (endometrium [11]; following double-blind treatment): benign in all cases | subjects with more than 9 days of any level of bleeding (heavy bleeding, bleeding or spotting) ([12]; days 9-90, treatment course 1): 15.9% | subjects with more than 9 days of any level of bleeding (heavy bleeding, bleeding or spotting) ([12]; days 9-90, treatment course 2): 6.3% | subjects with more than 9 days of any level of bleeding (heavy bleeding, bleeding or spotting) ([12]; days 9-90, treatment course 3): 3.4% | subjects with more than 9 days of any level of bleeding (heavy bleeding, bleeding or spotting) ([12]; days 9-90, treatment course 4): 3.9% | percentage of subjects in amenorrhea ([12]; end of treatment course 1): 79.5% | percentage of subjects in amenorrhea ([12]; end of treatment course 2): 88.5% | percentage of subjects in amenorrhea ([12]; end of treatment course 3): 88.2% | percentage of subjects in amenorrhea ([12]; end of treatment course 4): 89.7% | return to menstruation ([12]; following the end of each treatment course): al but 4 subjects with available data returned to menstruation | mean time to amenorrhea ([12]; treatment course 1): 9.4 days | median time to amenorrhea ([12]; treatment course 1): 4.0 days | mean time to amenorrhea ([12]; treatment course 2): 3.3 days | median time to amenorrhea ([12]; treatment course 2): 2.0 days | mean time to amenorrhea ([12]; treatment course 3): 5.3 days | median time to amenorrhea ([12]; treatment course 3): 3.0 days | mean time to amenorrhea ([12]; treatment course 4): 4.2 days | median time to amenorrhea ([12]; treatment course 4): 3.0 days

C#C[C@]1(OC(C)=O)CC[C@H]2[C@@H]3CCC4=CC(=O)CC[C@@H]4[C@H]3CC[C@@]21C [NETA, norethindrone (norethisterone) acetate]
endometrium thickness, comparison of the 2 treatment groups (endometrium [2]; after each treatment course): placebo group were higher compared to those for the NETA group | women reporting events ([6]; double-blind treatment phase, 10 days after UPA): 11.2% | women with TEAEs ([6]; post-treatment phase): 26.5% | safety and tolerability assessment [7]: did not raise any safety concerns | median return to menstruation following end of UPA treatment (uterine fibroids [9]; NETA 10 mg once-daily for 10 days after UPA, p≤0.001 vs placebo): 14.0 days | median change in PBAC score (uterine fibroids [9]; NETA treatment group, first menstruation following treatment completion compared to baseline, p=0.012 vs placebo): −122 | percentage of women with endometrial thickness >16 mm (endometrium [10]; after NETA double-blind treatment, 0% at screening): 3.5% | extensive cyst formation (one of the features of PAEC) (endometrium [11]; after NETA treatment): 2.4% | percentage of non-physiological endometrial features (endometrium [11]): 22.6% | endometrial polyp (endometrium [11]; biopsy 12 weeks after UPA treatment): one benign endometrial polyp | cases of PAEC (endometrium [11]; biopsy 12 weeks after UPA treatment, subgroup): no case of PAEC | heaviness of bleeding as measured by the PBAC score (days 1-8) ([12]; first menstruation after each treatment course): decrease after each subsequent treatment course | median times to return of menstruation following discontinuation of UPA ([12]; treatment courses 1-4, NETA group compared to placebo group, p<0.001): significantly shorter
